Reference: patent US7408025B2, “Lipopeptides as antibacterial agents” (priority 1999, dated 2008)

Test: Acute toxicity monitoring in non-inoculated mice
Format: in vivo, female CD-1 mice
Conditions: not inoculated; 10 mg/kg, s.c. × 2; acute toxicity group
Procedure: The test compound was dissolved in 10.0 ml of 50 mM phosphate buffer to give a solution of 1 mg/ml (pH=7.0). This solution was serially diluted with vehicle by 4-fold ([…]) to give 0.25, 0.063 and 0.016 mg/ml solutions. All the solutions were filtered with […] Nalgene syringe filter. Immediately after the bacterial inoculation, group 1 animals were subcutaneously (sc) injected with buffer (no test compound) and groups 2 to 5 were given test compound sc at 10.0, 2.5, 0.63, and 0.16 mg/kg, respectively. Group 6 animals received test compound sc at 10 mg/kg (or the highest therapeutic dose of a given compound) only for monitoring acute toxicity. These injections were repeated once at 4 hours after the inoculation for the respective groups. The injection volume at each time was 10 ml per kilogram of body weight. The results of the in vivo efficacy test are summarized in Table II, which provides a representative example of the results obtained for Compound 70. The 50% effective dose (ED50) is calculated on the basis of the number of mice surviving 7 days after inoculation. The ED50 was determined for other compounds of this invention in a similar manner.

## CCCCCCCCCC(=O)NC(Cc1c[nH]c2ccccc12)C(=O)NC(CC(N)=O)C(=O)NC(CC(=O)O)C(=O)NC1C(=O)NCC(=O)NC(CCCNC(=O)C2Cc3c([nH]c4ccccc34)CN2)C(=O)NC(CC(=O)O)C(=O)NC(C)C(=O)NC(CC(=O)O)C(=O)NCC(=O)NC(CO)C(=O)NC(C(C)CC(=O)O)C(=O)NC(CC(=O)c2ccccc2N)C(=O)OC1C (stereo not shown) [Compound 70]
  Survival (7 days): 5/5
